Measured values from patent publication US20180099931A1 (AbbVie S.à.r.l., priority 2016, published 2018).
Read-outs that look alike come from different tables or passages of the source.

Molecular target: T1, F508delCFTR (Homo sapiens, UniProt P13569, DEL508-508)
T1 construct: expressed in transfected cells; host or cells: CFBE41o- human lung-derived epithelial cells (CFBE4lo-F508delCFTR-HRP), doxycycline-inducible
Experiment: Cell Surface Expression-Horse Radish Peroxidase (CSE-HRP) Assay;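 as to Maximum % activity (with co-corrector): co-corrector and positive control are both the same reference corrector at 2 µM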;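 as to Maximum % activity (without co-corrector): percent of the 2 µM on-plate positive control corrector response above DMSO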
Format: cell-based
Details: for Emax: read-out: Maximum % activity (without co-corrector)

[1] = test compound without co-corrector, read-out: EC50 (without co-corrector)
[2] = with co-corrector (2 μM of 3-[(2R,4R)-4-({[1-(2,2-difluoro-1,3-benzodioxol-5-yl)cyclopropyl]carbonyl}amino)-7-methoxy-3,4-dihydro-2H-chromen-2-yl]benzoic acid), read-out: EC50 (with co-corrector)
[3] = with co-corrector (2 μM), maximum at any tested concentration, normalized to on-plate positive control
[4] = without co-corrector, maximum at any tested concentration, normalized to on-plate positive control
[5] = test compound without co-corrector, maximum at any tested concentration, normalized to on-plate positive control
[6] = with co-corrector (2 μM of 3-[(2R,4R)-4-({[1-(2,2-difluoro-1,3-benzodioxol-5-yl)cyclopropyl]carbonyl}amino)-7-methoxy-3,4-dihydro-2H-chromen-2-yl]benzoic acid), maximum at any tested concentration, normalized to on-plate positive control
[7] = CSE-HRP, test compound without co-corrector, read-out: EC50 (without co-corrector)
[8] = CSE-HRP, with co-corrector (2 μM of 3-[(2R,4R)-4-({[1-(2,2-difluoro-1,3-benzodioxol-5-yl)cyclopropyl]carbonyl}amino)-7-methoxy-3,4-dihydro-2H-chromen-2-yl]benzoic acid), read-out: EC50 (with co-corrector)
[9] = CSE-HRP, with co-corrector (2 μM), maximum at any tested concentration, normalized to on-plate positive control
[10] = CSE-HRP, without co-corrector, maximum at any tested concentration, normalized to on-plate positive control

T1 sequence (P13569 with tags, fused parts or gaps DEL508-508): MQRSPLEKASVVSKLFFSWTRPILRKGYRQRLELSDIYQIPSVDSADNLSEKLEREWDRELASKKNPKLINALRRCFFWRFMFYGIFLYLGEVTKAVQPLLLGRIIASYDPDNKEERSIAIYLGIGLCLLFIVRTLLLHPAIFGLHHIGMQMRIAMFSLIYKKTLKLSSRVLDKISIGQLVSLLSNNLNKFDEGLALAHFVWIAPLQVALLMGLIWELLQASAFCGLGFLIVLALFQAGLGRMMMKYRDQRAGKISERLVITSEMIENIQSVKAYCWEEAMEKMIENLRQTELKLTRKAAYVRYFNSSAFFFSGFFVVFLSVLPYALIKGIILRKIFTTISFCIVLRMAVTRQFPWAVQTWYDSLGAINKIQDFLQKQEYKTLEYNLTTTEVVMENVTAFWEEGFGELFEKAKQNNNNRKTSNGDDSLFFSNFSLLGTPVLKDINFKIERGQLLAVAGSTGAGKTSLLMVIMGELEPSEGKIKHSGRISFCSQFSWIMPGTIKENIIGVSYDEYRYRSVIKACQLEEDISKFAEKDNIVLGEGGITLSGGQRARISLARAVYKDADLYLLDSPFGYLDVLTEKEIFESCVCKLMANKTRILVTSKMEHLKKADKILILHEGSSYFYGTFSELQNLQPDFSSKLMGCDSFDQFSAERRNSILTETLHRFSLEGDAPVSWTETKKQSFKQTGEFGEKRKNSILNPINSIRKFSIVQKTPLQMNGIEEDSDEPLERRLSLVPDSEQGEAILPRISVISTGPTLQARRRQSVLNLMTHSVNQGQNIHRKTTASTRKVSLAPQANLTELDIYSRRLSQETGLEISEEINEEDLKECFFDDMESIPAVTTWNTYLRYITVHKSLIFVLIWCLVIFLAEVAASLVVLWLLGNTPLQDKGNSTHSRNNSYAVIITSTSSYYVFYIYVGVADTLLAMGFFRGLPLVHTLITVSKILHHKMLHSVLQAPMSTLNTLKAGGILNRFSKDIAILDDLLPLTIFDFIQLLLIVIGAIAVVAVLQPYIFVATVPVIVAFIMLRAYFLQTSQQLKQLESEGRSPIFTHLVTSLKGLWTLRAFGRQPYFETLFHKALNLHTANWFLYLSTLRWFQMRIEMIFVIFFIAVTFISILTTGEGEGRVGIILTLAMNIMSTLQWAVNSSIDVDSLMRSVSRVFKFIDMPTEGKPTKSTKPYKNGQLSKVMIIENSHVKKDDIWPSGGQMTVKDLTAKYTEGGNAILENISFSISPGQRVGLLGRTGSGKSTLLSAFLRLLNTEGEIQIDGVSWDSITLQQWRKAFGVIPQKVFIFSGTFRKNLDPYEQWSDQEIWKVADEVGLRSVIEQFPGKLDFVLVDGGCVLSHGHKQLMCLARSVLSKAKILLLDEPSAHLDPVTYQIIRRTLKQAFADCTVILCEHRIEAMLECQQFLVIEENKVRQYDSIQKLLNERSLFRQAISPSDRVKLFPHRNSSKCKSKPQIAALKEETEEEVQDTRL

| EC50 [1] [nM] | EC50 [2] [nM] | Maximum % activity (with co-corrector) [3] | Emax [4] [%] | Emax [5] [%] | Maximum % activity (with co-corrector) [6] | EC50 [7] [nM] | EC50 [8] [nM] | Maximum % activity (with co-corrector) [9] | Emax [10] [%] | Maximum % activity (without co-corrector) [5] | SMILES |
| --- | --- | --- | --- | --- | --- | --- | --- | --- | --- | --- | --- |
| 1000 to 10000 | < 1000 | +++ (≥350) | > 200 |  |  |  |  |  |  |  | COc1nc(C(C)(C)C)ccc1CN[C@H]1[C@H](C(C)(C)C)[C@@H](C(=O)O)N(C(=O)C2CCCC(F)(F)C2)[C@H]1c1ccccc1 (relative stereo) [Example 53, (2S,3S,4S,5S)-3-tert-butyl-4-{[(6-tert-butyl-2-methoxypyridin-3-yl)methyl]amino}-1-[(1R*)-3,3-difluorocyclohexane-1-carbonyl]-5-phenylpyrrolidine-2-carboxylic acid] |
| 1000 to 10000 | 1000 to 10000 |  |  | < 100 | +++ (≥350) |  |  |  |  |  | COc1ncc(-c2cccnc2)cc1CN[C@H]1[C@H](C(C)(C)C)[C@@H](C(=O)O)N(C(=O)C2CCCCC2)[C@H]1c1ccccc1 [II-345] |
| 1000 to 10000 | < 1000 |  |  | 100 to 200 | +++ (≥350) |  |  |  |  |  | COc1cc(C(F)(F)F)ccc1CN[C@H]1[C@H](C23CC(C2)C3)[C@@H](C(=O)O)N(C(=O)C2CCCCC2)[C@H]1c1ccccc1 [II-470] |
|  |  |  |  |  |  | 1000 to 10000 | < 1000 | +++ (≥350) | > 200 |  | COc1cc2c(cc1CN[C@H]1[C@H](C(C)(C)C)[C@@H](C(=O)O)N(C(=O)C3CCCCC3)[C@H]1c1ccccc1)CCCC2 [II-125] |
|  |  |  |  |  |  | 1000 to 10000 | < 1000 | +++ (≥350) | > 200 |  | COc1cccc(-c2ccc(OC)c(CN[C@H]3[C@H](C(C)(C)C)[C@@H](C(=O)O)N(C(=O)C4CCCCC4)[C@H]3c3ccccc3)c2)c1 [II-277] |
| > 10000 | 1000 to 10000 | ++ (≥150 and <350) | < 100 |  |  |  |  |  |  |  | COc1cc(N[C@H]2[C@H](C(C)(C)C)[C@@H](C(=O)O)N(C(=O)C3CCCCC3)[C@H]2c2ccccc2)nc(OC)n1 (racemic) [Example I-9] |
| 1000 to 10000 | 1000 to 10000 |  |  | > 200 | +++ (≥350) |  |  |  |  |  | COc1ncc(C(F)(F)F)cc1CN[C@H]1[C@H](C(C)(C)C)[C@@H](C(=O)O)N(C(=O)OC(C)C)[C@H]1c1cccnc1N(C)C [II-510] |
|  |  |  |  |  |  | 1000 to 10000 | < 1000 | +++ (≥350) | > 200 |  | COc1nc2ccccc2cc1CN[C@H]1[C@H](C(C)(C)C)[C@@H](C(=O)O)N(C(=O)C2CCCCC2)[C@H]1c1ccccc1 [II-244] |
|  |  |  |  |  |  | 1000 to 10000 | 1000 to 10000 | +++ (≥350) | 100 to 200 |  | CCOc1ccc(Br)cc1CN[C@H]1[C@H](C(C)(C)C)[C@@H](C(=O)O)N(C(=O)OC(C)C)[C@H]1c1cccnc1N1CCC1 [Example I-274] |
| < 1000 | < 1000 |  |  | 100 to 200 | +++ (≥350) |  |  |  |  |  | COc1ccc(C(C)(C)C)cc1CN[C@H]1[C@H](C(C)(C)C)[C@@H](C(=O)O)N(C(=O)c2ccc(OC(F)(F)F)cc2)[C@H]1c1cccnc1N(C)C [II-467] |
| < 1000 | < 1000 | +++ (≥350) | > 200 |  |  |  |  |  |  |  | COc1ncc(C2CCCC2)cc1CN[C@H]1[C@H](C(C)(C)C)[C@@H](C(=O)O)N(C(=O)C2CCCCC2)[C@H]1c1ccccc1 [Example I-73] |
|  |  |  |  |  |  | 1000 to 10000 | < 1000 | +++ (≥350) | > 200 |  | COc1nc2ccccc2cc1CN[C@H]1[C@H](C(C)(C)C)[C@@H](C(=O)O)N(C(=O)OC(C)C)[C@H]1c1ccccc1C(C)C [Example I-250] |
| 1000 to 10000 | 1000 to 10000 |  |  | 100 to 200 | +++ (≥350) |  |  |  |  |  | COc1ccc(C(C)(C)C)nc1CN[C@H]1[C@H](C(C)(C)C)[C@@H](C(=O)O)N(C(=O)C2CCCCC2)[C@H]1c1ccccc1 [II-373] |
| 1000 to 10000 | 1000 to 10000 |  |  | 100 to 200 | +++ (≥350) |  |  |  |  |  | CC#CCOC(=O)N1[C@H](C(=O)O)[C@@H](C(C)(C)C)[C@H](NCc2cc(C(C)(C)C)ccc2OC)[C@@H]1c1ccccc1 [II-389] |
| 1000 to 10000 | 1000 to 10000 | +++ (≥350) | 100 to 200 |  |  |  |  |  |  |  | COc1cc(C(F)(F)F)ccc1CN[C@H]1[C@H](C(C)(C)C)[C@@H](C(=O)O)N(C(=O)C(C)c2ccccc2)[C@H]1c1ccccc1 (relative stereo) [Example 11, (2S,3S,4S,5S)-3-tert-butyl-4-({[2-methoxy-4-(trifluoromethyl)phenyl]methyl}amino)-5-phenyl-1-[(2R*)-2-phenylpropanoyl]pyrrolidine-2-carboxylic acid] |
| 1000 to 10000 | 1000 to 10000 | +++ (≥350) | < 100 |  |  |  |  |  |  |  | COc1cc(C(F)(F)F)cc(N[C@@H]2[C@@H](C(C)(C)C)[C@H](C(=O)O)N(C(=O)OC(C)C)[C@@H]2c2ccccc2)n1 (racemic) [Example I-10] |
| 1000 to 10000 | 1000 to 10000 |  |  |  | ++ (≥150 and <350) |  |  |  |  | + (<100) | COc1ccc(C(C)(C)C)cc1CN[C@H]1[C@H](C(C)(C)C)[C@@H](C(=O)O)N(C(=O)C2COc3ccccc3O2)[C@H]1c1cccnc1N(C)C (single isomer, unassigned) [II-472] |
| < 1000 | < 1000 | +++ (≥350) | 100 to 200 |  |  |  |  |  |  |  | COc1ccc(C(C)(C)C)cc1CN[C@H]1[C@H](C(C)(C)C)[C@@H](C(=O)O)N(C(=O)C2Cc3ccccc3O2)[C@H]1c1cccnc1N(C)C (single isomer, unassigned) [Example 36, (2S,3S,4S,5S)-3-tert-butyl-4-{[(5-tert-butyl-2-methoxyphenyl)methyl]amino}-1-[(2S*)-2,3-dihydro-1-benzofuran-2-carbonyl]-5-[2-(dimethylamino)pyridin-3-yl]pyrrolidine-2-carboxylic acid] |
| 1000 to 10000 | < 1000 | +++ (≥350) | > 200 |  |  |  |  |  |  |  | COc1ccc(C(C)(C)C)cc1CN[C@H]1[C@H](C(C)(C)C)[C@@H](C(=O)O)N(C(=O)OC(C)C)[C@H]1c1cccc(Cl)c1 [Example 86, (2S,3S,4S,5S)-3-tert-butyl-4-{[(5-tert-butyl-2-methoxyphenyl)methyl]amino}-5-(3-chlorophenyl)-1-{[(propan-2-yl)oxy]carbonyl}pyrrolidine-2-carboxylic acid] |
| > 10000 | 1000 to 10000 | + (<150) |  | < 100 |  |  |  |  |  |  | CC(C)(C)[C@@H]1[C@@H](NCc2cc(F)ccc2S(C)(=O)=O)[C@@H](c2ccccc2)N(C(=O)C2CCCCC2)[C@H]1C(=O)O (racemic) [III-108] |
| 1000 to 10000 | 1000 to 10000 | +++ (≥350) | > 200 |  |  |  |  |  |  |  | COc1ccc(C(C)(C)C)cc1CN[C@H]1[C@H](C(C)(C)C)[C@@H](C(=O)O)N(C(=O)OC(C)C)[C@H]1c1ccccc1F [Example I-221] |
|  |  |  |  |  |  | < 1000 | < 1000 | +++ (≥350) | > 200 |  | COc1ccc(C(C)(C)C)cc1CN[C@H]1[C@H](C(C)(C)C)[C@@H](C(=O)O)N(C(=O)C2CC2c2ccc(F)cc2)[C@H]1c1ccccc1 (stereo partly shown) [II-307] |
| < 1000 | < 1000 | +++ (≥350) | > 200 |  |  |  |  |  |  |  | COc1ccc(CC2CCCCC2)cc1CN[C@H]1[C@H](C(C)(C)OC)[C@@H](C(=O)O)N(C(=O)C2CCCCC2)[C@H]1c1ccccc1 [Example I-118] |
|  |  |  |  |  |  | < 1000 | < 1000 | +++ (≥350) | > 200 |  | COc1ccc(-c2ccc(F)cc2F)cc1CN[C@H]1[C@H](C(C)(C)C)[C@@H](C(=O)O)N(C(=O)C2CCCCC2)[C@H]1c1ccccc1 [II-283] |
| 1000 to 10000 | 1000 to 10000 |  |  | 100 to 200 | +++ (≥350) |  |  |  |  |  | COc1cc(C(F)(F)F)ccc1CN[C@H]1[C@H](C(C)(C)C)[C@@H](C(=O)O)N(C(=O)OC(C)C)[C@H]1c1cccnc1N(C)C [II-514] |
|  |  |  |  |  |  | 1000 to 10000 | 1000 to 10000 | +++ (≥350) | > 200 |  | COc1ccc(C(C)C)cc1CN[C@H]1[C@H](C(C)(C)C)[C@@H](C(=O)O)N(C(=O)OC(C)C)[C@H]1c1ccccc1 [II-169] |
| 1000 to 10000 | 1000 to 10000 | +++ (≥350) | 100 to 200 |  |  |  |  |  |  |  | COc1ccc(C(C)(C)C)cc1CN[C@H]1[C@H](C(C)(C)C)[C@@H](C(=O)O)N(C(=O)C2CC3CC3C2)[C@H]1c1ccccc1 (stereo partly shown) [Example I-186] |
| < 1000 | < 1000 | +++ (≥350) | < 100 |  |  |  |  |  |  |  | COc1nc(C(C)(C)C)ccc1CN[C@H]1[C@H](C(C)(C)C)[C@@H](C(=O)O)N(C(=O)C2Cc3ccccc3O2)[C@H]1c1ccccc1 (single isomer, unassigned) [Example I-181] |
